Assay results from patent publication US20240270748A1 (Merck Patent GmbH, priority 2021, published 2024).
Structures can show the parent of a compound that is named as a salt.

test system: YAP-TEAD interaction; test: SK-HEP-1 reporter assay (8xTEAD responsive elements driving NanoLuc luciferase); assay type: cell-based; settings: Homo sapiens, SK-HEP1, SK-HEP-1 reporter assay; class symbols
Protocol: To identify inhibitors of YAP-TEAD interaction, 8×TEAD responsive elements driving the NanoLuc® luciferase gene were stably integrated into SK-HEP-1 cells (ECACC #: 91091816).
For the assay, cells were treated in duplicates with the test compounds in a 10-point dose, with the top concentration starting at 30 μM (final concentration in assay). After a 24 hour incubation at 37° C., 95% rH, and 5% CO2, a luciferase substrate/lysis reagent mix (NanoGlo™, Promega) was added to the cells, allowing the quantification of cellular luciferase activity.
Cell Media: The cells were cultured in the following media: MEM, +10% FBS, +1× GlutaMAX, +1 mM Sodium-Pyruvate, +100 μM Non-essential amino acids, +0.1 mg/ml Hygromycin. The media used for the assay was: MEM (w/o Phenol Red), +10% FBS, +1× GlutaMAX, +1 mM Sodium-Pyruvate, +100 μM Non-essential amino acids, +0.5% Pen/Strep
Reagents: The reagents used are listed below:
Cell culture: The cells were examined using an inverted microscope to check for health and cell density. To dissociate adherent cells, the monolayer of cells was washed once with pre-warmed PBS. After removing the PBS, 3 ml pre-warmed Accutase® was added to a F75 flask, dispersed evenly and the flask was allowed to sit in incubator for ˜4-5 minutes.
When a single cell suspension was obtained, 7 ml of prewarmed growth media was added and resuspended with the cells. The cell suspension was transferred to a sterile 15 ml conical centrifuge tube, and spun for 5 min at 300×g, RT. The supernatant was discarded and the pellet was resuspended in 10 ml of pre-warmed growth media.
The total cell count was determined, and 20 μl of the desired cell number was added to each well of a 384 well plate using a Multidrop Combi. The plates were then incubated for 24 hours at 37° C., 95% rH, and 5% C02.
Compound treatment: 24 hours after seeding, the cells were treated with compounds.
A 1:333 dilution of compounds, diluted in DMSO, was made to get a final concentration of 0.3% DMSO per well. To transfer the compounds to the assay plate, […] was shot from Labcyte low dead volume plates to the cell plates containing 20 μl media/well with the ECHO 555 liquid handling system.
After treatment, the cells were fed with 20 μl fresh pre-warmed assay media using a Multidrop combi.
The assay plates were then incubated for another 24 h at 37° C., 95% rH, and 5% CO2.
Luciferase readout: 24 h after treatment, the plates were taken out of the incubator and were allowed to equilibrate to RT. 30 μl of NanoGlo® reagent was added to the plates in the dark. Plates were shaken for 20 min on a Teleshake (˜1500 rpm) in the dark. The luminescence was then measured using an EnVision microplate reader. The IC50 values were generated using Genedata Screener®.

| Compound | IC50 |
| --- | --- |
| Cn1cc2c3cc(NC(=O)CC4(O)CNC4)ccc3n(-c3ccc(C(F)(F)F)cc3)c2n1 [Example C259, 2-(3-hydroxyazetidin-3-yl)-N-{2-methyl-8-[4-(trifluoromethyl)phenyl]-2H,8H-pyrazolo[3,4-b]indol-5-yl}acetamide Formate] | 100 to 10000 nM |
| CCN1CCC(NC(=O)c2ccc3c(c2)c2cn(C)nc2n3-c2ccc(C(F)(F)F)cc2)CC1 [Example C136, N-(1-ethylpiperidin-4-yl)-2-methyl-8-[4-(trifluoromethyl)phenyl]-2H,8H-pyrazolo[3,4-b]indole-5-carboxamide trifluoroacetate] | 100 to 10000 nM |
| Cc1snc2c1c1cc(C(=O)N[C@H](CO)c3ccccn3)ccc1n2-c1ccc(C(F)(F)F)cc1 [Example C69, N-[(1S)-2-hydroxy-1-(pyridin-2-yl)ethyl]-3-methyl-8-[4-(trifluoromethyl)phenyl]-8H-[1,2]thiazolo[3,4-b]indole-5-carboxamide] | 100 to 10000 nM |
| C[C@H](NC(=O)c1ccc2c(c1)c1cn(C)nc1n2-c1ccc(C(F)(F)F)cc1)c1ccnc(N)c1 [Example C264] | 100 to 10000 nM |
| Cn1cc2c3cc(C(=O)N4CC(CF)C4)ccc3n(-c3ccc(C(F)(F)F)cc3)c2n1 [Example C60, 3-(fluoromethyl)-1-{2-methyl-8-[4-(trifluoromethyl)phenyl]-2H,8H-pyrazolo[3,4-b]indole-5-carbonyl}azetidine] | 100 to 10000 nM |
| C[C@H](CO)C(=O)Nc1ccc2c(c1)c1cn(C)nc1n2-c1ccc(C(F)(F)F)cc1 [Example C154, (2R)-3-hydroxy-2-methyl-N-{2-methyl-8-[4-(trifluoromethyl)phenyl]-2H,8H-pyrazolo[3,4-b]indol-5-yl}propanamide] | 100 to 10000 nM |
| Cn1cc2c3cc(C(=O)NC[C@H](O)C(F)(F)F)ccc3n(-c3ccc(C(F)(F)F)cc3)c2n1 [Example C133, 2-methyl-N-[(2S)-3,3,3-trifluoro-2-hydroxypropyl]-8-[4-(trifluoromethyl)phenyl]-2H,8H-pyrazolo[3,4-b]indole-5-carboxamide] | 100 to 10000 nM |
| Cn1cc2c3cc(C(=O)N4CC[C@@H](O)C4)ccc3n(-c3ccc(C(F)(F)F)cn3)c2n1 [Example C152, (3R)-1-{2-methyl-8-[5-(trifluoromethyl)pyridin-2-yl]-2H,8H-pyrazolo[3,4-b]indole-5-carbonyl}pyrrolidin-3-ol] | > 10000 nM |
| Cn1cc2c3cc(NC(=O)CNC4CCNC4)ccc3n(-c3ccc(C(F)(F)F)cc3)c2n1 (stereo not shown) [Example C224, N-{2-methyl-8-[4-(trifluoromethyl)phenyl]-2H,8H-pyrazolo[3,4-b]indol-5-yl}-2-[{pyrrolidin-3-yl)amino]acetamide] | 100 to 10000 nM |
| Cn1cc2c3cc(NC(=O)CCN)ccc3n(-c3ccc(C(F)(F)F)cc3)c2n1 [Example C221, 3-amino-N-{2-methyl-8-[4-(trifluoromethyl)phenyl]-2H,8H-pyrazolo[3,4-b]indol-5-yl}propanamide] | 100 to 10000 nM |
| Cn1cc2c3cc(C(=O)N4CC[C@@H](O)C4)ccc3n(-c3ccc(C(F)(F)F)c(F)c3)c2n1 [Example C171, (3R)-1-{8-[3-fluoro-4-(trifluoromethyl)phenyl]-2-methyl-2H,8H-pyrazolo[3,4-b]indole-5-carbonyl}pyrrolidin-3-ol] | 100 to 10000 nM |
| O=C(O)c1ccc2c(c1)c1cnn(C(F)(F)F)c1n2-c1ccc(C(F)(F)F)cc1 [Example C34, 1-(trifluoromethyl)-8-[4-(trifluoromethyl)phenyl]-1H,8H-pyrazolo[3,4-b]indole-5-carboxylic acid] | 100 to 10000 nM |
| Cc1noc(C(CO)NC(=O)c2ccc3c(c2)c2cn(C)nc2n3-c2ccc(C(F)(F)F)cc2)n1 (stereo not shown) [Example C268, N-[2-hydroxy-1-(3-methyl-1,2,4-oxadiazol-5-yl)ethyl]-2-methyl-8-[4-(trifluoromethyl)phenyl]-2H,8H-pyrazolo[3,4-b]indole-5-carboxamide] | 100 to 10000 nM |
| Cn1cc2c3cc(C(=O)OCCS(C)(=N)=O)ccc3n(-c3ccc(C(F)(F)F)cc3)c2n1 (stereo not shown) [Example C29, 2-[imino(methyl)oxo-λ^6-sulfanyl]ethyl 2-methyl-8-[4-(trifluoromethyl)phenyl]-2H,8H-pyrazolo[3,4-b]indole-5-carboxylate] | 10 to 100 nM |
| CNCCC(=O)Nc1ccc2c(c1)c1cn(C)nc1n2-c1ccc(C(F)(F)F)cc1 [Example C222, N-{2-methyl-8-[4-(trifluoromethyl)-phenyl]-2H,8H-pyrazolo[3,4-b]indol-5-yl}-3-(methylamino)propanamide] | 100 to 10000 nM |
| C[C@@H](NC(=O)c1ccc2c(c1)c1cn(C)nc1n2-c1ccc(C(F)(F)F)cc1)c1ccccn1 [Example C107, 2-methyl-N-[(1R)-1-(pyridin-2-yl)ethyl]-8-[4-(trifluoromethyl)phenyl]-2H,8H-pyrazolo[3,4-b]indole-5-carboxamide] | 100 to 10000 nM |
| Cn1cc2c3cc(C(=O)N=S4(=O)CCC5(CCNCC5)C4)ccc3n(-c3ccc(C(F)(F)F)cc3)c2n1 (stereo not shown) [Example C138, 2-methyl-N-{2-oxo-2lambda6-thia-8-azaspiro[4.5]decan-2-ylidene}-8-[4-(trifluoromethyl)phenyl]-2H,8H-pyrazolo[3,4-b]indole-5-carboxamide] | 100 to 10000 nM |
| Cn1cc2c3cc(C(=O)N[C@@H](CO)c4ccccn4)cnc3n(-c3ccc(C(F)(F)F)cc3)c2n1 [Example C228, N-[(1R)-2-hydroxy-1-(pyridin-2-yl)ethyl]-4-methyl-7-[4-(trifluoromethyl)phenyl]-4,5,7,9-tetraazatricyclo[6.4.0.0^2,6]dodeca-1(8),2,5,9,11-pentaene-11-carboxamide] | 10 to 100 nM |
| COCCS(=O)(CCN)=NC(=O)c1ccc2c(c1)c1cn(C)nc1n2-c1ccc(C(F)(F)F)cc1 (stereo not shown) [Example C146, N-[(2-aminoethyl)(2-methoxyethyl)oxo-λ^6-sulfanylidene]-2-methyl-8-[4-(trifluoromethyl)phenyl]-2H,8H-pyrazolo[3,4-b]indole-5-carboxamide] | 100 to 10000 nM |
| Cn1cnc2c1c1cc(CO)ccc1n2-c1ccc(C(F)(F)F)cc1 [Example C132, {1-methyl-4-[4-(trifluoromethyl)phenyl]-1H,4H-imidazo[4,5-b]indol-7-yl}methanol] | 100 to 10000 nM |
| Cn1cc2c3cc(C(=O)N=S4(=O)CC(N)C4)ccc3n(-c3ccc(C(F)(F)F)cc3)c2n1 (stereo not shown) [Example C270, N-(3-amino-1-oxo-1¿6-thietan-1-ylidene)-2-methyl-8-[4-(trifluoromethyl)phenyl]-2H,8H-pyrazolo[3,4-b]indole-5-carboxamide formate] | 10 to 100 nM |
| Cc1snc2c1c1cc(C(=O)NC[C@H](O)C(F)(F)F)ccc1n2-c1ccc(C(F)(F)F)cc1 [Example C55, 3-methyl-N-[(2S)-3,3,3-trifluoro-2-hydroxypropyl]-8-[4-(trifluoro-methyl)phenyl]-8H-[1,2]thiazolo[3,4-b]indole-5-carboxamide] | 100 to 10000 nM |
| Cn1nc2c3cc(C(=O)N=[S@@](=O)(CCO)Cc4cccnc4)ccc3n(-c3ccc(C(F)(F)F)cc3)c2n1 (single isomer, unassigned) [Example C238] | 10 to 100 nM |
| CNC(=O)c1ccc2c(c1)c1cn(C)nc1n2C1CC2(C1)CC(F)(F)C2 [Example C206, 8-{6,6-difluorospiro[3.3]heptan-2-yl}-N,2-dimethyl-2H,8H-pyrazolo[3,4-b]indole-5-carboxamide] | 10 to 100 nM |

same assay, conditions: Homo sapiens, SK-HEP1, SK-HEP-1 reporter assay; n.d. = value not detectable below threshold given in parentheses; ND = not determinable within the entire range

| Compound | IC50 |
| --- | --- |
| C[C@@H](CO)NS(=O)(=O)c1ccc2c(c1)c1nnn(C)c1n2-c1ccc(C(F)(F)F)cc1 [Example C1, N-[(2S)-1-hydroxypropan-2-yl]-3-methyl-4-[4-(trifluoromethyl)phenyl]-3H,4H-[1,2,3]triazolo[4,5-b]indole-7-sulfonamide] | > 30000 nM |
| Cn1cc2c3nc(C(=O)N=S(C)(=O)CCO)ccc3n(-c3ccc(C(F)(F)F)cc3)c2n1 (stereo not shown) [Example C109, N-[(2-hydroxyethyl)(methyl)oxo-λ^6-sulfanylidene]-4-methyl-7-[4-(trifluoromethyl)phenyl]-4,5,7,12-tetraazatricyclo [6.4.0.0^2,6]dodeca-1(8),2,5,9,11-pentaene-11-carboxamide] | > 30000 nM |
| Cn1cc2c(n1)c1cc(S(=O)(=O)N3C[C@H](O)C[C@@H]3c3ccccc3)ccc1n2-c1ccc(C(F)(F)F)cc1 (single isomer, unassigned) [Example C40] | > 30000 nM |

same assay, conditions: SK-HEP-1 reporter assay; class symbols

| Compound | IC50 |
| --- | --- |
| COCCC(CO)NC(=O)c1ccc2c(c1)c1cn(C)nc1n2-c1ccc(C(F)(F)F)cc1 (single isomer, unassigned) [Example C246] | 100 to 10000 nM |
